From PMC11602115 (Journal of Medicinal Chemistry, 2017)
Read-outs that look alike come from different tables or passages of the source.

Assays:
[1] = Stability in rat microsome preparations; format: in vitro ADME; settings: incubation at 37 °C, rat microsomes; read-out: rat MS, T1/2
From the text: (§1) Table 1 Screening Data for Selected Analogues ^a | column: human and rat MS, T1/2 (min) ^g

[2] = Rat PK (iv and oral); format: in vivo; settings: for AUC(0-inf) / bioavailability: Sprague-Dawley, plasma; for AUC(0-inf): after oral administration 10 mg/kg (5m 10.5); for bioavailability: po, 10 mg/kg; for Cmax / Tmax: po 10 mg/kg (5m 10.5); for T1/2: terminal half-life after iv 2 mg/kg (5m 2.1); for Clobs: total clearance, iv 2 mg/kg (5m 2.1)
[3] = Stability in human microsome preparations; format: in vitro ADME; settings: incubation at 37 °C, human microsomes; read-out: human MS, T1/2
From the text: as §1

[4] = biological target: T1, human DP1 receptor (Homo sapiens, UniProt Q13258); assay: HTRF cAMP assay, recombinant human DP1 receptor in CHO-K1 cells; format: cell-based; settings: for Emax: CHO-K1, intrinsic activity relative to 1 μM PGD2, read-out: hDP1 % IA
T1 construct: expressed in transfected cells
T1 sequence (Q13258 1-359): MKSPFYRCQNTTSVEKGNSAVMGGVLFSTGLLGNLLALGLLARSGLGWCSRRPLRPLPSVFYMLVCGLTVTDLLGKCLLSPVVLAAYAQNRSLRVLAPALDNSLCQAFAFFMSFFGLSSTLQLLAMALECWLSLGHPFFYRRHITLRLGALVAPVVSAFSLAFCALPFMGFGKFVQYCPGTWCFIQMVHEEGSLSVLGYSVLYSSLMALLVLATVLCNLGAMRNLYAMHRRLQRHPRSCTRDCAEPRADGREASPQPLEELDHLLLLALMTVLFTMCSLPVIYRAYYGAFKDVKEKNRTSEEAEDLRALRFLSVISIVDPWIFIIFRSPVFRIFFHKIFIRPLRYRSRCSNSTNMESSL
Protocol: (§2) The new compounds were tested for functional agonist activity in a standard (Cisbio) cAMP assay using recombinant IP or DP1 receptors stably expressed in CHO-K1 cells. Clonal cell lines were derived following standard protocols, but receptor expression levels were kept to a minimum to preclude receptor reserve effects.
(§3) For development of cAMP accumulation assays, recombinant IP or DP1 receptors were stably expressed in CHO-K1 cells and clonal cell lines derived following standard protocols. Receptor expression levels were minimized to preclude receptor reserve effects. HTRF cAMP assays were performed according to the manufacturer’s instructions (Cisbio, cAMP Dynamic 2 assay kit; no. 62AM4PEJ). IP receptor-expressing cells were harvested, resuspended in assay buffer (PBS containing 1 mM IBMX and 0.2% BSA) at a density of 200 000 cells per mL, and dispensed into 384-well assay plates (PerkinElmer Proxiplate no. 6008280) at 5 μL per well. Test compounds were solubilized and serially diluted in DMSO using 5-fold dilutions to generate a 10-point dose–response curve with a top concentration of 10 μM. The samples were then further diluted in PBS to achieve a 2× stock. Diluted compounds were then transferred to a triplicate set of assay plates (5 μL per well). After a 1 h incubation at room temperature, 5 μL of cAMP-D2 reagent diluted in lysis buffer was added to each well followed by 5 μL of cryptate reagent. Plates were then incubated at room temperature for 1 h prior to reading. Time-resolved fluorescence measurements were collected on PerkinElmer Envision or BMG Pherastar microplate readers.

[5] = test system: human platelet; assay: Inhibition of ADP-induced human platelet aggregation; format: cell-based; settings: aggregation induced by 2.5 μM ADP, mean of at least two determinations
Protocol: Such aggregated and activated platelets produce vasoactive substances such as thromboxane and serotonin that may cause harmful vasoconstriction and vascular remodeling.[13] […] This secondary assay was carried out as previously described,[14] with aggregation induced by 2.5 μM ADP in the presence or absence of IP receptor agonists.

[6] = biological target: IP (Homo sapiens, UniProt P43119); assay: HTRF cAMP assay, recombinant human IP receptor stably expressed in CHO-K1 cells; format: cell-based; set-up: expressed in transfected cells; settings: for Emax: CHO-K1, read-out: hIP % IA; for EC50: HTRF (cAMP) human IP receptor assay, mean of at least three determinations
Protocol: as §2, §3

[7] = biological target: rat IP (Rattus norvegicus, UniProt P43253); assay: HTRF cAMP assay, recombinant rat IP receptor; format: cell-based; set-up: expressed in transfected cells; settings: for EC50: HTRF (cAMP) rat IP receptor assay, mean of at least three determinations; for Emax: read-out: rIP % IA
Protocol: as §2, §3

[8] = biological target: EP2 (Homo sapiens, UniProt P43116); assay: cAMP HTRF agonist assay, EP2; format: cell-based; settings: cAMP HTRF agonist assay
From the text: Table Sup2: Data with some comparator compounds in functional assays. […]

[9] = biological target: EP4 (Homo sapiens, UniProt P35408); assay: cAMP HTRF agonist assay, EP4; format: cell-based; settings: cAMP HTRF agonist assay
From the text: (§4) Table Sup2: Data with some comparator compounds in functional assays.
(§5) Compound DP1 EP1 EP2 EP3v6 EP4
(§6) EC50, µµµµM (% I.A) EC50, µµµµM (% I.A) EC50, µµµµM (% I.A) EC50, µµµµM (% I.A) EC50, µµµµM (% I.A)
(§7) n = 3 n = 2 n = 8 n = 6 n = 6 […]

[10] = biological target: T2, EP1 (Homo sapiens, UniProt P34995); assay: cAMP HTRF agonist assay, EP1; format: cell-based
T2 sequence (P34995 1-402): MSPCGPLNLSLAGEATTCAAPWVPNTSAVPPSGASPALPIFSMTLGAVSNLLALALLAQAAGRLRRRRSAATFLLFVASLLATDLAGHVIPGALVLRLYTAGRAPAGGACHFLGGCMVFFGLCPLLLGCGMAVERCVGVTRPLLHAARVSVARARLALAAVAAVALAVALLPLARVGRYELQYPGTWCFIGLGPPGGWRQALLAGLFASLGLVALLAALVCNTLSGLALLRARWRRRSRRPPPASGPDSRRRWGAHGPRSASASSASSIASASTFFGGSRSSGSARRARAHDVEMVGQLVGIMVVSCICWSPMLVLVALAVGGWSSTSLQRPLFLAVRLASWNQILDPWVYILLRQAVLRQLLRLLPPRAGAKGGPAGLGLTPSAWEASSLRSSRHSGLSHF
From the text: as §4, §5, §6, §7

[11] = HTRF (cAMP) human DP1 receptor assay, mean of at least three determinations, read-out: EC50 hDP1
[12] = cAMP HTRF agonist assay (Gs), Table Sup2, read-out: DP1 EC50

Sequence of EP2 (P43116 whole entry): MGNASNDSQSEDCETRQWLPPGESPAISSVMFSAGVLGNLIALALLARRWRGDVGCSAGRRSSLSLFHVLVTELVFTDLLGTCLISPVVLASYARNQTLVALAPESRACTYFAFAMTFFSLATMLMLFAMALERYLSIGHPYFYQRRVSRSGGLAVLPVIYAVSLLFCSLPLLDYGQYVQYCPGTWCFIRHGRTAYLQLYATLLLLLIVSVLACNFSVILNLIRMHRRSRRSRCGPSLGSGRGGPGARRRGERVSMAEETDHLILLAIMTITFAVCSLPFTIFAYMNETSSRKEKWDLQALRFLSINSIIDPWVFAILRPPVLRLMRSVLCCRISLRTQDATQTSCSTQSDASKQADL
Sequence of rat IP (P43253 whole entry): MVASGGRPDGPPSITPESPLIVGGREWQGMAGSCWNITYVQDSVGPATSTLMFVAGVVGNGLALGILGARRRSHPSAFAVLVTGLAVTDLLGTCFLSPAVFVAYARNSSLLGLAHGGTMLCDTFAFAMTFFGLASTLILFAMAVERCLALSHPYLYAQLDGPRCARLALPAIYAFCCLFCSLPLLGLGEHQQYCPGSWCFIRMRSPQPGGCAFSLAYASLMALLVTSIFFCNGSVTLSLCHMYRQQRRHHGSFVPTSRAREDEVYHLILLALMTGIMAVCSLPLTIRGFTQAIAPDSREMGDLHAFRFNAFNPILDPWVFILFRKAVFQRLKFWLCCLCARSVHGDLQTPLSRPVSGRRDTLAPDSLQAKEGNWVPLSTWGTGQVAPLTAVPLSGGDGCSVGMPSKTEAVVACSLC
Sequence of IP (P43119 whole entry): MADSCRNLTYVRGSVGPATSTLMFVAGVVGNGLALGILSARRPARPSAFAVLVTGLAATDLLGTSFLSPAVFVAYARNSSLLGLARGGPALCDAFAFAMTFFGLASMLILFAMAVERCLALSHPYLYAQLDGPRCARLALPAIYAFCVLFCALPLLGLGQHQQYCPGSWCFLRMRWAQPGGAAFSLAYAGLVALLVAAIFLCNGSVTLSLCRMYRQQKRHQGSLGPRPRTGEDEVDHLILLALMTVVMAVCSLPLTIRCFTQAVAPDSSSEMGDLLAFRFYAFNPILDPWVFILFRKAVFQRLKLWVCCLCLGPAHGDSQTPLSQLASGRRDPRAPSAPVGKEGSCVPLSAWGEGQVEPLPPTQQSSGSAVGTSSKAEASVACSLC
Sequence of EP4 (P35408 whole entry): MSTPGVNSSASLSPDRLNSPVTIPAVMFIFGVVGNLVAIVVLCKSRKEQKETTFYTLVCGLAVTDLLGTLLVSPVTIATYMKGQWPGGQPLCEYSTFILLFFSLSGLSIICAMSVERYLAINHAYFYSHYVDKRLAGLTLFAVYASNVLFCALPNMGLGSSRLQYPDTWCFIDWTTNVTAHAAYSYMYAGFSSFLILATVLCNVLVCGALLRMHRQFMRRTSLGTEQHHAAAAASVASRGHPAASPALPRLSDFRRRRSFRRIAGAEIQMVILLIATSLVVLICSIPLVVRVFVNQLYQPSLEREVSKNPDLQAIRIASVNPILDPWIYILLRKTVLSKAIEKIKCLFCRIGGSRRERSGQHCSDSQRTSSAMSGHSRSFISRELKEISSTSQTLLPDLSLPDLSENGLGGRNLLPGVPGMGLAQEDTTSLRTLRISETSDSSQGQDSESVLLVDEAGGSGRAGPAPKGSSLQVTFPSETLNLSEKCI

Row | half-life [1] [h] | AUC(0-inf) [2] [ng·h/mL] | bioavailability [2] [%] | Cmax [2] [ng/mL] | Tmax [2] [h] | T1/2 [2] [h] | Clobs [2] [L h^–1 kg^–1] | half-life [3] [h] | Emax [4] [%] | EC50 [4, 11] [nM] | IC50 [5] [nM] | Emax [6] [%] | EC50 [6] [nM] | EC50 [7] [nM] | Emax [7] [%] | SMILES | also measured
1 | > 1 | 2600 | 88 | 3000 | 0.5 | 5 | 0.8 | > 1 | 38 | 2050 | 23 | 85 | 3.4 | 400 | 92 | O=C(O)COC[C@H]1CC[C@H](COC(=O)N(c2ccccc2)c2ccc(Cl)c(F)c2)CC1 [5m, 2-(((1r,4r)-4-(((4-Chloro-3-fluorophenyl)(phenyl)carbamoyloxy)methyl)cyclohexyl)methoxy)acetic Acid] | –
2 | > 1 | 7900 | 100 | 1200 | 0.3 | 3.9 | 1.8 | > 1 | 55 | 620 | 12 | 89 | 6.6 | 535 | 91 | O=C(O)COC[C@H]1CC[C@H](COC(=O)N(c2ccccc2)c2ccc(F)cc2)CC1 [5l, 2-(((1r,4r)-4-(((4-Fluorophenyl)(phenyl)carbamoyloxy)methyl)cyclohexyl)methoxy)acetic Acid] | –
3 | – | – | – | – | – | – | – | – | – | – | – | – | – | – | – | O=C(O)CCCCCCC1C(=O)NC(=O)N1CCC(O)C1CCCCC1 (centres unmarked) [BW245C] | EC50 [8]: 790 nM; EP2 % I.A [8]: 73%; DP1 % I.A ([4]; cAMP HTRF agonist assay (Gs), Table Sup2): 98%; EC50 [4, 12]: 0.8 nM; EC50 [9]: > 10000 nM
4 | > 1 | – | – | – | – | – | – | > 1 | – | > 10000 | 142 | 79 | 38 | 1330 | 102 | O=C(O)COC[C@H]1CC[C@H](COC(=O)N(c2ccccc2)c2ccc(F)c(Cl)c2)CC1 [5n, 2-(((1r,4r)-4-(((3-Chloro-4-fluorophenyl)(phenyl)carbamoyloxy)methyl)cyclohexyl)methoxy)acetic Acid] | –
5 | 0.883 | 1900 | 86 | 900 | 0.3 | 3.3 | 5.1 | > 1 | 68 | 1720 | 23 | 92 | 12 | 470 | 94 | COc1cccc(N(C(=O)OC[C@H]2CC[C@H](COCC(=O)O)CC2)c2ccccc2)c1 [5j, 2-(((1r,4r)-4-(((3-Methoxyphenyl)(phenyl)carbamoyloxy)methyl)cyclohexyl)methoxy)acetic Acid] | –
6 | – | – | – | – | – | – | – | – | – | – | – | – | – | – | – | CCCCC[C@H](O)/C=C/[C@H]1C(=O)C[C@H](O)[C@@H]1C/C=C\CCCC(=O)O [PGD2] | EC50 [8]: > 10000 nM; EC50 [4, 12]: 1.3 nM; EC50 [10]: > 10000 nM
7 | > 1 | 4500 | 24 | 1430 | 0.833 | 3.2 | 0.6 | > 1 | 45 | 5000 | 19 | 88 | 10 | 640 | 95 | O=C(O)COC[C@H]1CC[C@H](COC(=O)N(c2ccccc2)c2ccc(F)c(F)c2)CC1 [5o, 2-(((1r,4r)-4-(((3,4-Difluorophenyl)(phenyl)carbamoyloxy)methyl)cyclohexyl)methoxy)acetic Acid] | –
8 | > 1 | 3400 | 100 | 950 | 0.3 | 0.3 | 3.4 | > 1 | 74 | 240 | 22 | 83 | 3.3 | 165 | 91 | COc1ccc(N(C(=O)OC[C@H]2CC[C@H](COCC(=O)O)CC2)c2ccccc2)cc1 [5e, 2-(((1r,4r)-4-(((4-Methoxyphenyl)(phenyl)carbamoyloxy)methyl)cyclohexyl)methoxy)acetic Acid] | –
9 | > 1 | – | – | – | – | – | – | > 1 | 57 | 808 | 30 | 76 | 7.8 | 1630 | 54 | O=C(O)COC[C@H]1CC[C@H](COC(=O)N(c2ccc(F)cc2)c2cccc(F)c2)CC1 [5s, 2-(((1r,4r)-4-(((4-Fluorophenyl)(3-fluorophenyl)carbamoyloxy)methyl)cyclohexyl)methoxy)acetic Acid] | –
10 | > 1 | – | – | – | – | – | – | > 1 | 30 | 5070 | – | 80 | – | 272 | 88 | O=C(O)COC[C@H]1CC[C@H](COC(=O)N(c2ccccc2)c2cccc(Cl)c2)CC1 [5i, 2-(((1r,4r)-4-(((3-Chlorophenyl)(phenyl)carbamoyloxy)methyl)cyclohexyl)methoxy)acetic Acid] | –
11 | > 1 | – | – | – | – | – | – | > 1 | 48 | – | 62 | 98 | – | – | 100 | CC(C)N(CCCCOCC(=O)NS(C)(=O)=O)c1cnc(-c2ccccc2)c(-c2ccccc2)n1 [compound 1, selexipag, reference compound] | –
